Measured values reported in publication PMC11435156, “Exploring Quinazoline Nitro-Derivatives as Potential Antichagasic Agents: Synthesis and In Vitro Evaluation” (Molecules, 2024).
Where two headings read alike, the source gives them in different places. Marks after values point to notes of the source that are not given here.

How the values were obtained:
[1] = tested on: HFF1 human foreskin fibroblasts; assay: Viability of human foreskin fibroblasts (trypan blue exclusion); settings: for HFF1 LD50: human
Procedure: To evaluate the effect on cell viability, HFF1 cells cultured and washed as above were dispensed in a 96 well plate to a concentration of 1 × 10^4 cells/well in 0.2 mL and incubated for 24 h at 37 °C for adherence. […] To determine viability, cells were detached by trypsinization and then collected, and viability was determined by trypan blue exclusion.

[2] = tested on: T. cruzi Queretaro strain epimastigotes; assay: Growth of epimastigotes cultured in vitro (motile parasites counted, relative growth); assay type: cell-based, Trypanosoma cruzi; settings: for S.I. LD50/ED50: HFF1 LD50 / epimastigote ED50; for IC50: Trypanosoma cruzi, read-out: Epi ED50; for antiparasitic effect, summary in words: epimastigotes and trypomastigotes, summary of Table 2; for Epi ED50 (initial screening): initial screening done in 5 mL culture
Procedure: Epimastigotes were grown at 28 °C.
Epimastigotes were grown in LIT medium at the exponential phase and aliquots of 1 × 10^5 parasites were dispensed in 200 µL/well in a 96-well culture plate (Corning; NY, USA). […] Control samples without the compounds were supplemented with the maximum amount of vehicle used. […] Afterwards, the number of mobile epimastigotes (motility as parameter of viability) was counted in a Neubauer chamber. Relative growth is the difference of the final density of parasites after 24 h of treatment with the compound minus the density of parasites at time 0 of exposure; these differences were further normalized to the relative growth of the culture without compound. Plots of the percentage of relative growth against compound concentration were built and data adjusted to dose–response equation with the Origin Pro software (Origin Pro version 8.0) to calculate the concentration at which the variable is decreased by 50%.

[3] = tested on: T. cruzi Queretaro strain trypomastigotes; assay: Viability of trypomastigotes (motility as parameter of viability); assay type: cell-based; settings: Trypanosoma cruzi, read-out: Trypo LD50
Procedure: For the primary infection, 20,000 HFF1 cells/mL were inoculated in 5 mL DMEM supplemented with 10% FBS in a 175 cm^2 flask (Corning; Corning, NY, USA;) and cultivated at 37 °C and 5% CO2 for 24 h for adherence. Afterwards, the medium was changed to DMEM supplemented with 2% FBS and the cells were infected with 10 × 10^6 epimastigotes previously collected and washed with 10 mL DMEM without FBS. The cells were incubated for 48 h at 37 °C and 5% CO2 and later washed every 24 h with DMEM with 2%FBS until trypomastigotes liberation (5–7 days post infection).
For the secondary infection, LLC-MK2 cells (epithelial cells from the kidney of an adult monkey) were infected in a similar fashion to the primary infection, but using 1 × 10^6 trypomastigotes obtained from the primary infection. The released trypomastigotes were used immediately for drug treatment.
The number of mobile trypomastigotes (motility as parameter of viability) was determined using a Neubauer chamber. Data were processed as above.

[4] = 120 h, epimastigote growth, 5 days, single initial pulse of compound
[5] = epimastigote relative growth, 24 h treatment, 96-well plate
[6] = trypomastigote viability, 3 h treatment

| SMILES | HFF1 LD50 ([1]; 24 h) | HFF1 LD50 ([1]; 5 days) | S.I. LD50/ED50 ([2]; 24 h) | IC50 [2, 4] | IC50 [2, 5] | antiparasitic effect, summary in words [2] | LC50 ([3]; 3 h) | S.I. LD50/ED50 ([2]; 5 days) | LC50 [3, 6] | Epi ED50 (initial screening) ([2]; epimastigote growth, 24 h) | cytotoxicity on HFF1 ([1]; 5 days) | concentration at which cytotoxicity started to show ([1]; HFF1, 24 h treatment) | cytotoxicity on HFF1 ([1]; 24 h treatment) |
| --- | --- | --- | --- | --- | --- | --- | --- | --- | --- | --- | --- | --- | --- |
| Nc1nc(N)c2cc(NCc3ccccc3Cl)ccc2n1 [Compound 8] | 8.6 ± 2 (4) µM | 8 (2) µM | 4 | 6.6 ± 0.5 µM | 2.3 ± 0.5 µM | highly toxic for parasites and fibroblasts | 59 µM |  |  |  |  |  |  |
| Nc1nc(N)c2cc(NCc3cccc(Cl)c3)ccc2n1 [Compound 9] | 85 ± 7 (6) µM | >100 (2) µM | 11 | 8.1 ± 1.8 µM | 7.6 ± 2.5 µM |  |  | ≥12 | > 150 µM |  |  |  |  |
| Nc1nc(N)c2cc(NCc3ccccc3[N+](=O)[O-])ccc2n1 [Compound 6] |  |  |  |  |  |  |  |  |  | 143 * (2) µM |  |  |  |
| Nc1nc(N)c2cc(NCc3ccccc3OC(F)(F)F)ccc2n1 [Compound 12] |  |  |  |  |  |  |  |  |  | 44 ± 3 (3) µM |  |  |  |
| O=C(Cn1ccnc1[N+](=O)[O-])NCc1ccccc1 [Bnz, N-benzyl-2-(2-nitroimidazol-1-yl) acetamide, reference compound] | 165 ± 27 (3) µM | 118 ± 14 (3) µM | 18 | 17 ± 10 µM | 9.4 ± 1.3 µM |  |  | 7 | 183 µM |  | high cytotoxicity | > 50 µM |  |
| Nc1nc(N)c2cc(NCc3ccccc3)ccc2n1 [Compound 5] | >60 (4) µM | 26 (2) µM | ≥5 | 14 ± 2 µM | 13 ± 3 µM |  | > 150 µM |  |  |  |  |  |  |
| Nc1nc(N)c2cc(NCc3ccc([N+](=O)[O-])cc3)ccc2n1 [Compound 7] |  |  |  |  |  |  |  |  |  | >100 * (2) µM |  |  |  |
| Nc1nc(N)c2cc(NCc3cccc(O)c3)ccc2n1 [Compound 13] |  |  |  |  |  |  |  |  |  | >100 * (2) µM |  |  |  |
| Nc1nc(N)c2cc(NC(=O)c3ccc([N+](=O)[O-])cc3)ccc2n1 [Compound 4, N-(2,4-Diaminequinazolin-6-yl)-4-nitrobenzamide] | >100 (6) µM | >100 (2) µM | ≥10 | 10 µM | 10 ± 0.4 µM |  |  | ≥10 | 60 µM |  |  |  |  |
| Nc1nc(N)c2cc(NCc3cc(F)ccc3F)ccc2n1 [Compound 11, N^6-(2,5-Difluorobenzyl)quinazoline-2,4,6-triamine] | >60 (4) µM | >60 (1) µM | ≥7 | 20 ± 2 µM | 9 ± 1.4 µM |  |  | ≥3 | > 150 µM |  |  |  |  |
| COc1cc(CNc2ccc3nc(N)nc(N)c3c2)cc(OC)c1OC [Compound 14, N^6-(3,4,5-Trimethoxybenzyl)quinazoline-2,4,6-triamine] |  |  |  |  |  |  |  |  |  | >100 * (2) µM |  |  |  |
| Nc1nc(N)c2cc(NC(=O)c3ccccc3)ccc2n1 [Compound 1, N-(2,4-Diaminequinazolin-6-yl)benzamide] | >100 (6) µM | >100 (2) µM |  | > 100 µM | > 100 µM | did not showed an effect in parasites nor in cells | > 150 µM |  |  |  |  |  | did not show either cytotoxicity or parasiticidal effects |
| Nc1nc(N)c2cc(NCc3ccc(Cl)cc3)ccc2n1 [Compound 10] | 116 ± 13 (6) µM | >100 (2) µM | 13 | 14 ± 1.2 µM | 8.9 ± 2 µM |  |  | ≥7 | > 150 µM |  |  |  |  |
| Nc1nc(N)c2cc(NC(=O)c3cccc([N+](=O)[O-])c3)ccc2n1 [Compound 3, N-(2,4-Diaminequinazolin-6-yl)-3-nitrobenzamide] | >100 (6) µM | >100 (2) µM | ≥42 | 8.9 µM | 2.4 ± 0.4 µM |  |  | ≥11 | 50 µM |  |  |  |  |
| Nc1nc(N)c2cc(NC(=O)c3ccccc3[N+](=O)[O-])ccc2n1 [Compound 2, N-(2,4-Diaminequinazolin-6-yl)-2-nitrobenzamide] | >100 (6) µM | >100 (2) µM | ≥5 | 15 ± 3 µM | 19 ± 2 µM |  |  | ≥6.7 | 95 µM |  |  |  |  |
| CC1CS(=O)(=O)CCN1/N=C/c1ccc([N+](=O)[O-])o1 (stereo not drawn) [Nfx, (E)-N-(3-methyl-1,1-dioxo-1,4-thiazinan-4-yl)-1-(5-nitrofuran-2-yl) methanimine, reference compound] |  |  |  | 11.8 ± 0.1 µM | 3.8 ± 1.2 µM |  |  |  |  |  |  |  |  |
